Laboratory results taken from patent EP4635958A1, “PYRIMIDINE-CONTAINING POLYCYCLIC DERIVATIVE INHIBITOR, AND PREPARATION METHOD THEREFOR AND USE THEREOF” (Shanghai Hansoh Biomedical Co., Ltd., priority 2022, dated 2024).
Counter-ions that a name gives are not always drawn. Like-named read-outs stand apart in the source and are kept apart here.

Columns and labels:
[1] = Pharmacokinetic determination in rats (IV and PO, plasma, LCMS/MS); type: in vivo, SD rats; details: male SD rats; for F: PO 30 mg/kg vs IV 1 mg/kg; for AUC(0-inf) / C0 / clearance / half-life / Cmax / Tmax: rat, in vivo, overnight fasting, plasma; for AUC(0-inf): read-out: AUCo-∞; for C0: read-out: C0; for clearance: read-out: CL; for half-life: read-out: T1/2 (converted); for Cmax: read-out: Cmax; for Tmax: read-out: Tmax
Procedure, shortened: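 Male SD rats (3/group), fasted overnight, dosed PO at 30 mg/kg in 10% Captisol/50 mM citrate pH 5.0 or IV at 1 mg/kg in 5% DMSO/10% Solutol HS15/85% PBS. Jugular plasma (EDTA-2K) sampled predose to 24 h; analysed by LCMS/MS.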

[2] = Plasma stability test, dog plasma; type: in vitro ADME; details: Dog plasma, 37°C; for half-life: read-out: t1/2 (converted);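 on all read-outs here: parent compound left in dog plasma quantified by LC-MS with positive electrospray ionization, selected reaction monitoring and an internal standard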
Description: (§1) Liquid chromatography-mass spectrometer, centrifuge, vortexer, pipette, continuous dispenser, 96-well plate, 50% methanol aqueous solution, acetonitrile solution containing internal standard, blank matrix (plasma of rat, dog, or human), Propantheline (propantheline bromide), Mevinolin (lovastatin), and test compound.
(§2) After whole blood was collected from animals or humans, it was placed in a test tube containing an anticoagulant and centrifuged at 3500 rpm for 10 min to collect the upper pale yellow plasma.
(§3) The compound was weighed and the stock solution was formulated with DMSO and the working solution was formulated with 100 mM phosphate buffer.
(§4) • Instrument: API4000 liquid chromatography-mass spectrometer, AB Company, USA; • the ion source was electrospray ionization source (ESI); • drying gas (N2) temperature was 500°C; • electrospray voltage was 5500V; • the detection method was positive ion detection; • the scanning method was selected reaction monitoring (MRM); • the scanning time was 0.1s.

[3] = Plasma stability test, human plasma; type: in vitro ADME; details: Human plasma, 37°C; for half-life: read-out: t1/2 (converted);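 on all read-outs here: test compound incubated in human plasma, quantified by LC-MS/MS (positive-ion ESI, MRM) against an internal standard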
Description: as §1, §2, §3, §4

[4] = Plasma stability test, rat plasma; details: for Remaining rate (%) 0 min / Remaining rate (%) 15 min / Remaining rate (%) 30 min / Remaining rate (%) 60 min / Remaining rate (%) 120 min: Rat plasma, 37°C; for half-life: rat, plasma
Excerpt: The purpose of this experiment was to detect the stability of the example compounds in plasma of mouse, rat, dog and human.
as §1, §2, §3
2.36 mg of propantheline bromide was weighed and diluted with 1 mL of DMSO into a 10 mM stock solution; 10 µL of 10 mM stock solution was pipetted into 1 mL of 100 mM phosphate buffer to achieve a final concentration of 100 µM.
4.05 mg of lovastatin was weighed and diluted with 1 mL of DMSO into a 10 mM stock solution; 10 µL of 10 mM stock solution was pipetted into 1 mL of 100 mM phosphate buffer to achieve a final concentration of 100 µM.
• 1) In a 96-well plate, 285 µL of plasma and 15 µL of 10 µM compound (test compound) were added in sequence and incubated at 37°C. • 2) 40 µL was taken at 0, 15, 30, 60, 90, and 120 min (the sampling point can be fine-tuned) and 160 µL of acetonitrile stop solution containing internal standard was add. • 3) After centrifugation (3500 rpm, 10 min), 50 µL of supernatant was taken, and 50 µL of DDH2O added for dilution and then the obtained mixture was injected into LC-MS/MS.
• Instruments: Shimadzu LC-20 AD • Chromatographic column: Phenomenex Gemiu ® C18 (50*4.6 mm, 5 µm particle size); • mobile phase: A: Acetonitrile, B: 0.1% formic acid solution 0-8 min: 5% A→95% A, 2.0-2.1 min: 90%A→5% A; Flow rate: 0.8 mL/min; Run time: 5.0 min; Injection volume: 5 µL.
as §4

GP2D = assay: Inhibition of proliferation of KRAS G12D mutant tumor cell line GP2D (CellTiter-Glo); details: Homo sapiens, GP2d, 72 h, read-out: GP2D IC50
Description: Experimental method: When SNU-1, HPAF-II, Panc0403, AsPC-1 or GP2D cells were cultured to the appropriate confluence, and the SNU-1, HPAF-II, Panc0403, AsPC-1 or GP2D cells were collected. The cells were adjusted to the appropriate cell density using complete culture medium, the cell suspension was plated onto a 96-well plate at 90 µL per well, and the plate was placed in the incubator at 37°C and 5% CO2 for adherent culture overnight. Solutions of the compound with different concentrations were formulated using DMSO and culture medium. A vehicle control was set up. […] Then, CellTiter-Glo solution was added, and the obtained mixture was shaken and mixed evenly, incubated in the dark for 10 min, and read with a BioTek Synergy H1 microplate reader. […] Experimental data processing method: The luminescence signal value was used to calculate the inhibition rate. Graphpad Prism software was used to fit the concentration and inhibition rate to a nonlinear regression curve, so as to obtain the IC50 value.

| Structure (SMILES) | F [1] [%] | AUC(0-inf) ([1]; IV, 1 mg/kg) [ng·h/mL] | C0 ([1]; IV, 1 mg/kg) [ng/mL] | clearance ([1]; IV, 1 mg/kg) [mL/min/kg] | half-life ([1]; IV, 1 mg/kg) [min] | AUC(0-inf) ([1]; PO, 30 mg/kg) [ng·h/mL] | Cmax ([1]; PO, 30 mg/kg) [ng/mL] | half-life ([1]; PO, 30 mg/kg) [min] | Tmax ([1]; PO, 30 mg/kg) [h] | Remaining rate (%) 0 min [2] [%] | Remaining rate (%) 15 min [2] [%] | Remaining rate (%) 30 min [2] [%] | Remaining rate (%) 60 min [2] [%] | Remaining rate (%) 120 min [2] [%] | half-life [2] [days] | Remaining rate (%) 0 min [3] [%] | Remaining rate (%) 15 min [3] [%] | Remaining rate (%) 30 min [3] [%] | Remaining rate (%) 60 min [3] [%] | IC50 (GP2D) [nM] | other results |
| --- | --- | --- | --- | --- | --- | --- | --- | --- | --- | --- | --- | --- | --- | --- | --- | --- | --- | --- | --- | --- | --- |
| C#Cc1c(F)ccc2cc(O)cc(-c3nc4c5c(nc(OCC6(CN7CCC(=C(F)F)CC7)CC6)nc5c3F)N3C[C@H]5CC[C@H](N5)[C@H]3CO4)c12 [Example 1-1, 4-((5aS,6S,9R)-12-((1-((4-(difluoromethylene)piperidin-1-yl)methyl)cyclopropyl)methoxy)-1-fluoro-5a,6,7,8,9,10-hexahydro-5H-4-oxa-3,10a,11,13,14-pentaaza-6,9-methylenenaphtho[1,8-ab]heptalene-2-yl)-5-ethynyl-6-fluoronaphthalen-2-ol] | 2.1 | 2960 | 1770 | 5.6 | 978 | 1890 | 254 | 306 | 6 | 100.00 | 100.25 | 105.57 | 104.40 | 93.99 | 2.04 | 100.00 | 100.68 | 101.72 | 97.62 | 1.2 | Remaining rate (%) 120 min [3]: 88.35%; half-life [3]: 1880 min; Remaining rate (%) 0 min [4]: 100.00%; Remaining rate (%) 15 min [4]: 95.76%; Remaining rate (%) 30 min [4]: 92.93%; Remaining rate (%) 60 min [4]: 88.38%; Remaining rate (%) 120 min [4]: 80.60%; half-life [4]: 0.561 days |
| C#Cc1c(F)ccc2cc(O)cc(-c3nc4c5c(nc(OCC6(CN7CCC(=C(F)F)CC7)CC6)nc5c3F)N3C[C@H]5CC[C@H](N5)[C@H]3[C@H](C)O4)c12 [Example 19-1, 4-((5S,5aS,6S,9R)-12-((1-((4-(difluoromethylene)piperidin-1-yl)methyl)cyclopropyl)methoxy)-1-fluoro-5-methyl-5a,6,7,8,9,10-hexahydro-5H-4-oxa-3,10a,11,13,14-pentaaza-6,9-methylnaphtho[1,8-ab]hept-2-yl)-5-ethynyl-6-fluoronaphthalene-2-ol] | 5.4 | 1900 | 1720 | 8.8 | 606 | 3080 | 329 | 492 | 2 | 100.00 | 95.89 | 101.96 | 101.84 | 94.59 | 3.15 | 100.00 | 95.61 | 93.15 | 85.08 | 0.16 | Remaining rate (%) 120 min [3]: 83.37%; half-life [3]: 932 min; Remaining rate (%) 0 min [4]: 100.00%; Remaining rate (%) 15 min [4]: 96.27%; Remaining rate (%) 30 min [4]: 91.39%; Remaining rate (%) 60 min [4]: 95.69%; Remaining rate (%) 120 min [4]: 94.09%; half-life [4]: 3.6 days |
| C#Cc1c(F)ccc2cc(O)cc(-c3nc4c5c(nc(OCC6(CN7CCC(=NOC)CC7)CC6)nc5c3F)N3C[C@H]5CC[C@H](N5)[C@H]3[C@H](C)O4)c12 [Example 35-1, 1-((1-((((5S,5aS,6S,9R)-2-(8-ethynyl-7-fluoro-3-hydroxynaphthalen-1-yl)-1-fluoro-5-methyl-5a,6,7,8,9,10-hexahydro-5H-4-oxa-3,10a,11,13,14-pentaaza-6,9-methylenenaphtho[1,8-ab]heptalen-12-yl)oxo)methyl)cyclopropyl)methyl)piperidin-4-one O-methyloxime formate] | 3.5 | 571 | 2810 | 29.2 | 342 | 601 | 108 | 204 | 2 |  |  |  |  |  |  |  |  |  |  | 0.21 |  |
| [2H]C([2H])([2H])[C@@H]1Oc2nc(-c3cc(O)cc4ccc(F)c(C#C)c34)c(F)c3nc(OCC4(CN5CCC(=CF)CC5)CC4)nc(c23)N2C[C@H]3CC[C@H](N3)[C@@H]12 [Example 164] |  | 774 | 838 | 21.5 | 1060 | 1580 | 135 | 840 | 2 | 100.00 | 92.40 | 94.94 | 96.81 | 91.42 | 2.16 | 100.00 | 97.48 | 91.02 | 93.68 | 0.32 | Remaining rate (%) 120 min [3]: 89.66%; half-life [3]: 1820 min; Remaining rate (%) 0 min [4]: 100.00%; Remaining rate (%) 15 min [4]: 97.07%; Remaining rate (%) 30 min [4]: 93.36%; Remaining rate (%) 60 min [4]: 97.21%; Remaining rate (%) 120 min [4]: 95.03%; half-life [4]: 3.82 days |
| [2H]C([2H])(Oc1nc2c3c(nc(-c4cc(O)cc5ccc(F)c(C#C)c45)c(F)c3n1)O[C@@H](C)[C@@H]1[C@@H]3CC[C@H](CN21)N3)C1(C([2H])([2H])N2CCC(=CF)CC2)CC1 [Example 291, 5-ethynyl-6-fluoro-4-((5S,5aS,6S,9R)-1-fluoro-12-((1-((4-(fluoromethylene)piperidin-1-yl)methyl-d2)cyclopropyl)methoxy-d2)-5-methyl-5a,6,7,8,9,10-hexahydro-5H-4-oxa-3,10a,11,13,14-pentaaza-6,9-methylnaphtho[1,8-ab]hept-2-yl)naphthalen-2-ol] |  |  |  |  |  |  |  |  |  | 100.00 | 104.39 | 94.89 | 103.00 | 99.65 | 3.94 | 100.00 | 102.43 | 95.46 | 105.44 | 0.15 | Remaining rate (%) 120 min [3]: 96.68%; half-life [3]: 6930 min; Remaining rate (%) 0 min [4]: 100.00%; Remaining rate (%) 15 min [4]: 99.67%; Remaining rate (%) 30 min [4]: 102.83%; Remaining rate (%) 60 min [4]: 103.48%; Remaining rate (%) 120 min [4]: 98.20%; half-life [4]: 1.6 days |
| CON=C1CCN(CC2(COc3nc4c5c(nc(-c6cc(N)cc(Cl)c6C(F)(F)F)c(F)c5n3)O[C@@H](C)[C@@H]3[C@@H]5CC[C@H](CN43)N5)CC2)CC1 [Example 337, 1-((1-((((5S,5aS,6S,9R)-2-(5-amino-3-chloro-2-(trifluoromethyl)phenyl)-1-fluoro-5-methyl-5a,6,7,8,9,10-hexahydro-5H-4-oxa-3,10a,11,13,14-pentaaza-6,9-methylnaphtho[1,8-ab]heptene-12-yl)oxy)methyl)cyclopropyl)methyl)piperidin-4-one O-methyloxime] |  |  |  |  |  | 374 | 41 | 252 | 4 |  |  |  |  |  |  |  |  |  |  | 0.11 |  |
| [2H]C([2H])([2H])[C@@H]1Oc2nc(-c3cc(N)cc(Cl)c3C(F)(F)F)c(F)c3nc(OCC4(CN5CCC(=NOC)CC5)CC4)nc(c23)N2C[C@H]3CC[C@H](N3)[C@@H]12 [Example 339] | 6.6 | 98 | 174 | 170 | 156 | 220 | 43 | 180 | 2 |  |  |  |  |  |  |  |  |  |  | 0.1 |  |
